Here are results for four molecules from patent publication US10981932B2, “Macrocyclic indole derivatives” (Bayer Aktiengesellschaft, priority 2016, dated 2021).

Structures are written as SMILES.

Experiment [1] concerns SUDHL10. In words: Induction of caspase-3/7 activity (Caspase-Glo 3/7), SUDHL10. It counts as cell-based. The note with it: Homo sapiens, SU-DHL10, 3 h, caspase-3/7 induction, SUDHL10 cells, 3 h treatment; median. In outline:
(§1)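 A 3 h, 37 °C compound incubation precedes the Caspase-Glo 3/7 read. After subtracting medium-only signal, EC50s are fitted against the reference compound's maximal caspase induction.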

The test system of experiment [2] is SUDHL10. In words: Induction of cytotoxicity (CellTiter-Glo, 5 h), SUDHL10. The note with it: Homo sapiens, SU-DHL10, 5 h, read-out: Cytotox SUDHL10 [M] (median), SUDHL10 cells, cytotoxicity induction, CellTiter-Glo, 5 h incubation, median. (In general: ATP-based viability assays read luminescence as a measure of living cells.)
Another experiment has as its system OPM2. As to the kind of experiment: Anti-proliferative effect (CellTiter-Glo, 72 h), OPM2. It counts as cell-based. The conditions noted are these: Homo sapiens, OPM-2, 72 h, OPM2 cells, median, read-out: IC50 antiproliferation assay OPM2 [M] (median). A digest of the protocol: (§2)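 Endpoint: CellTiter-Glo luminescence, 10 min after reagent addition. Treatment ran 72 h at 37 °C, humidified. Growth was referenced to a separately plated day 0 plate.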

In experiment [3] the test system is SUDHL10. As to the kind of experiment: Anti-proliferative effect (CellTiter-Glo, 72 h), SUDHL10. In kind it is cell-based. The note with it: Homo sapiens, SU-DHL10, 72 h, SUDHL10 cells, antiproliferation, 72 h incubation, median, read-out: Antiproli SUDHL10 [M] (median). A digest of the protocol: as §2
In experiment [4] the test system is SUDHL5. In words: Induction of cytotoxicity (CellTiter-Glo, 5 h), SUDHL5. The conditions noted are these: Homo sapiens, SU-DHL-5, 5 h, read-out: Cytotox SUDHL5 [M] (median), SUDHL5 cells, cytotoxicity induction, CellTiter-Glo, 5 h incubation, median.
Procedure: Therefore, cytotoxicity assays were run in parallel in SUDHL5 and SUDHL10 cells.
The different cell lines were plated in culture medium (RPMI 1640 [GIBCO #22400-089]supplemented with 10% Fetal Bovine Serum) at a density of 3.300 cells in 30 μl/well in a sterile, solid black, flat bottom, polystyrene, TC-treated 384-well microplate (Corning #3571) using Multidrop Combi Reagent Dispenser. As a control, medium without cells was also added to the plate. Cells were incubated in a humidified incubator at 37° C. overnight. On the next day, the cells were treated with compounds (stock solution, 10 mM in DMSO) using the HP D300 Digital Dispenser in a concentration range of 3.3×10e-5 M (33 μM) to 5×10e-9 M (5 nM) in a single-dot curve with at least 16 dilutions and a DMSO concentration of 0.33%. Rim wells were excluded. The cells were incubated for 5 h hours in a humidified incubator at 37° C. After this incubation, 30 μl of CellTiter-Glo@ Luminescent Cell Viability reagent (Promega, G7573) was added to each well using the Multidrop Combi Reagent Dispenser, followed by 15 min incubation on a shaker at room temperature. Finally, luminescence was read at 0.1 ms, with a gain of 3000 using the PHERAstar FS microplate reader (BMG Labtech).
The Bella DRC Master Sheet was used to calculate IC50s, with fixed CI=0 and C0=1.
The target in another experiment is MCL-1 (Homo sapiens, UniProt Q07820). As to the kind of experiment: Protein-protein interaction assay MCL-1/Noxa BH3 peptide (MCL-1 assay), TR-FRET. In kind it is binding. The note with it: MBP-MCL-1 / Noxa BH3-derived peptide, median. In outline: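 Steady-state competition, MCL-1/Noxa BH3, TR-FRET readout; 1 nM MBP-MCL-1, 11-point dose series 0.1 nM–20 μM; overnight 4 °C equilibration; 4-parameter IC50.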
A general note: In TR-FRET formats the signal depends on donor and acceptor labels being close together.

Experiment [5] concerns SUDHL5. As to the kind of experiment: Anti-proliferative effect (CellTiter-Glo, 72 h), SUDHL5. In kind it is cell-based. The conditions noted are these: Homo sapiens, SU-DHL-5, 72 h, SUDHL5 cells, antiproliferation, 72 h incubation, median, read-out: Antiproli SUDHL5 [M] (median). A digest of the protocol: as §2
Experiment [6] deals with SUDHL5. As to the kind of experiment: Induction of caspase-3/7 activity (Caspase-Glo 3/7), SUDHL5. The note with it: Homo sapiens, SU-DHL-5, 3 h, caspase-3/7 induction, SUDHL5 cells, 3 h treatment; median. It counts as cell-based. A digest of the protocol: as §1
The next experiment deals with A2780. In words: Anti-proliferative effect (CellTiter-Glo, 72 h), A2780. It counts as cell-based. The note with it: Homo sapiens, A2780, 72 h, A2780 cells, median, read-out: IC50 antiproliferation assay A2780 [M] (median). In outline:
as §2

MCL-1, sequence (Q07820 whole entry): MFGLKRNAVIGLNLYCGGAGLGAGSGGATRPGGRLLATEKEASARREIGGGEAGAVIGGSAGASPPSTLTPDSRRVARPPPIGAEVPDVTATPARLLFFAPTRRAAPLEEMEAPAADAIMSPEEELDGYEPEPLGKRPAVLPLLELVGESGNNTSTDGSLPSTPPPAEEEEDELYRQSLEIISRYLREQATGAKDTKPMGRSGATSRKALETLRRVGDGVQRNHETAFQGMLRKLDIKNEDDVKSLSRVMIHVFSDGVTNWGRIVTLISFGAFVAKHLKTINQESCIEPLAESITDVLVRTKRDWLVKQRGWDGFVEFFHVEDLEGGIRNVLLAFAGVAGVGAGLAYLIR

Broadly, the EC50 is the concentration needed to bring the measured effect to its halfway point. The low end stands for higher potency in that assay, the high end for lower potency in that assay. In the case of `CN1CCN(c2ccc(OCc3nn(C)c4c3-c3cccc5c(CCCOc6cccc7ccccc67)c(C(=O)O)n(c35)CCCCOC4)cc2)CC1` (racemic) [Example 1-7, (rac)-1-methyl-3-{[4-(4-methylpiperazin-1-yl)phenoxy]methyl}-7-[3-(naphthalen-1-yloxy)propyl]-1,10,11,12,13,15-hexahydropyrazolo[4′,3′:9,10][1,6]oxazacycloundecino[8,7,6-hi]indole-8-carboxylic Acid], the EC50 in the experiment on SUDHL10 [1] and with SUDHL5 [6] was > 33 µM throughout. For the same molecule, the IC50 with SUDHL10 [2] is 8.17e-06 M; with OPM2, > 3.3e-05 M; in the experiment on SUDHL10 [3] it was > 3.3e-05 M; with SUDHL5 [4], > 3.3e-05 M; on MCL-1 it was 0.0158 µM; in the experiment on SUDHL5 [5] it was 1.63e-06 M. The IC50 with A2780 is > 3.3e-05 M.

With `CN(C)S(=O)(=O)N1CCN(c2ccc(OCc3nn(C)c4c3-c3cccc5c(CCCOc6cccc7ccccc67)c(C(=O)O)n(c35)CC=CCOC4)cc2)CC1` (racemic) [Example 1-17, (rac)-(E/Z)-3-({4-([4-(dimethylsulfamoyl)piperazin-1-yl]phenoxy}methyl)-1-methyl-7-[3-(naphthalen-1-yloxy)propyl]-1,10,13,15-tetrahydropyrazolo[4′,3′:9,10][1,6]oxazacycloundecino[8,7,6-hi]indole-8-carboxylic Acid], the EC50 was found to be 4.39 µM in the experiment on SUDHL10 [1] and 3.73 µM with SUDHL5 [6]. Also, the IC50 in the experiment with SUDHL10 [2] came to 6.88e-06 M; in the experiment with OPM2, 4.37e-06 M; in the experiment on SUDHL10 [3], 4.25e-06 M; with SUDHL5 [4] it was 4.36e-06 M; at MCL-1, 0.0127 µM; in the experiment with SUDHL5 [5], 2.99e-06 M. For the same molecule, the IC50 in the experiment on A2780 was found to be 8.94e-06 M.

For `Cn1nc(COc2ccc(N3CCN(C(=O)C4CC4)CC3)cc2)c2c1COCCCCn1c(C(=O)O)c(CCCOc3cccc4ccccc34)c3cccc-2c31` (racemic) [Example 1-21, (rac)-3-({4-[4-(cyclopropylcarbonyl)piperazin-1-yl]phenoxy}methyl)-1-methyl-7-[3-(naphthalen-1-yloxy)propyl]-10,11,12,13,15-hexahydropyrazolo[4′,3′:9,10][1,6]oxazacycloundecino[8,7,6-hi]indole-8-carboxylic Acid], the values for the EC50 in the experiment on SUDHL10 [1] and with SUDHL5 [6] were 2.82 µM and 2.34 µM, respectively. In addition, the IC50 in the experiment on SUDHL10 [2] amounted to 3.26e-06 M; in the experiment on OPM2, 3.61e-06 M; in the experiment with SUDHL10 [3] it was 2.49e-06 M; in the experiment on SUDHL5 [4], 2.31e-06 M; against MCL-1, 0.00106 µM; in the experiment on SUDHL5 [5], 2.41e-06 M. In addition, the IC50 in the experiment on A2780 is 1.29e-05 M.

For the molecule `CC(=O)N1CCN(c2ccc(OCc3nn(C)c4c3-c3cccc5c(CCCOc6cccc7ccccc67)c(C(=O)O)n(c35)CCCCOC4)cc2)CC1` (racemic) [Example 1-24, (rac)-3-{[4-(4-acetylpiperazin-1-yl)phenoxy]methyl}-1-methyl-7-[3-(naphthalen-1-yloxy)propyl]-1,10,11,12,13,15-hexahydropyrazolo[4′,3′:9,10][1,6]oxazacycloundecino[8,7,6-hi]indole-8-carboxylic Acid], the EC50 in the experiment on SUDHL10 [1] amounted to 6.61 µM; in the experiment on SUDHL5 [6] it was 4.28 µM. The IC50 in the experiment with SUDHL10 [2] stood at 4.33e-06 M; with OPM2 it was 2.97e-05 M; in the experiment with SUDHL10 [3], 6.52e-06 M; in the experiment on SUDHL5 [4], 2.23e-06 M; on MCL-1 it was 0.00231 µM; with SUDHL5 [5] it was 4.7e-06 M. Besides, the IC50 in the experiment on A2780 is > 3.3e-05 M.
